# Source: patent US10426815B2, “Prevention and treatment of itch with an MRGPR antagonist” (THE GENERAL HOSPITAL CORPORATION, priority 2015, dated 2019)
# “Also recorded” adds a separate entry of the source.
# What was measured:
# [1] = test system: mice (itch, scratching bouts); experiment: Mouse cheek model, scratching bouts; assay type: in vivo; conditions: for effect on SP-provoked itch (scratching bouts): C57BL/6 (WT) mice, co-injected with SP intradermally into the cheek; for effect on SP-provoked itch (scratching bouts) / provocation of itch (scratching bouts) by the injected substance, WT mice: 10 μl; for provocation of itch (scratching bouts) by the injected substance, WT mice: intradermal injection into the cheek
# Method: The mouse cheek model was used to evaluate scratching behavior in Mrgpr cluster Δ−/− and NK1−/− mice. Mice used for behavioral studies were 2 to 3 months old, 20-30 g. Mice were habituated for 30 minutes/day for 3 days prior and for 15 minutes on the day of the study. 10 μl of each compound were delivered by a 31G needle to the cheek. The mice were not shaved prior to injections to avoid irritation. All experiments were performed at consistent times during the day (9:00 am to 2:00 pm) and under the same conditions and in groups of at least 7 mice. The mice were videotaped in a soundproof environment minimize distraction. Recordings were scored for the number of scratching bouts that occur over 1 minute intervals during 25 minute observation periods and the investigator was not aware of the group allocation during scoring the study and behavioral analysis. A scratching bout was initiated by lifting of the hind paw to the area of injection, and ended by returning of the hind paw to the floor or to the mouth. […]
# For behavioral studies, average numbers of scratching bouts were compared across groups using one-way ANOVA. Pair-wise comparisons were performed using student t test after correcting p values for multiple comparisons using the Bonferroni procedure. For DRG studies and mast cell degranulation studies, unpaired student t-test was used. Differences were considered to be statistically significant for P<0.05. Data analysis was performed using PRISM 6.
# MrgX2 (human MRGPRX2) = target: T1, MrgX2 (human MRGPRX2) (Homo sapiens, UniProt Q96LB1); experiment: Calcium imaging of cells transfected with the GPCR (Table 1); assay type: cell-based; conditions: for inhibition of SP-induced activation of human MRGPRX2: FIG. 6a: SP 500 nM, inhibitors 1 μM, FK888 10 μM
# T1 construct: expressed in transfected cells; host or cells: HeLa cells, pcDNA3.1(-)
# T1 sequence (Q96LB1 1-330): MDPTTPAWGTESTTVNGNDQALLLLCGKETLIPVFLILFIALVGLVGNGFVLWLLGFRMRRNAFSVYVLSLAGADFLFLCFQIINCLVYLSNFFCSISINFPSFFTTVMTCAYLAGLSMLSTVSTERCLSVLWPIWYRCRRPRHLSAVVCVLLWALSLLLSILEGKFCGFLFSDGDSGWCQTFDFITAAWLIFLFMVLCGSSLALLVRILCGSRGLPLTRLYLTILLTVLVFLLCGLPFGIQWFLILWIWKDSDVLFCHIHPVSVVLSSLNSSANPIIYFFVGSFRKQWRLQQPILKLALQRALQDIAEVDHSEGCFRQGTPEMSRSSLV
# Method: human MRGPRX2 was isolated by PCR from human genomic DNA using the forward and reverse primers, […] (SEQ. ID. NO: 3) and […] (SEQ. ID. NO: 4), and cloned into pcDNA3.1(−). The mouse MrgprA1 cDNA expression clone was purchased from ORIGENE Technologies. The mouse MrgprB2 coding sequences were PCR-amplified from mouse genomic DNA using the primer pair, […] (SEQ. ID. NO: 5) and […] (SEQ. ID. NO: 6), and cloned into pcDNA3.1 (−).
# (§1) 10 μg of expression vector (human MRGPRX2, mouse MrgprA1 or NK1) and 10 μl of LIPOFECTAMINE 2000 transfection reagent were diluted into 0.5 ml of DMEM and separately left at room temperature (RT) for 5 min. They were then mixed and incubated at RT for 20 minutes prior to being added to HeLa cells. HeLa cells were grown to confluence, trypsinized and 1×10^6 cells were pelleted in a 15 ml tube by centrifugation at 1000 rpm for 5 minutes. The DMEM-LIPOFECTAMINE 2000-DNA mixture (1 ml) was then added to the cell pellet, suspended and incubated at RT for 5 minutes. 2 ml of complete DMEM with 10% FBS without antibiotics were added to the tube, mixed by inverting the tube, plated into a 96-well glass bottom plate at 50,000 cells/well, and placed in a 37° C. CO2 incubator for 3 hours. HeLa cells transfected with salmon sperm DNA were plated as a control. The medium was changed after 3 hours and left in the incubator. 24 hours after transfection, the medium in the wells was removed and 100 μl of complete DMEM containing 2 μM of FURA-2 were added to each well and left at room temperature in the dark for 1 hr. Following loading with FURA-2, the medium was removed, washed with PBS and replaced with 90 μl of HEPES-buffered saline (20 mM HEPES, 115 mM NaCl, 5.4 mM KCl, 2 mM CaCl2, 0.8 mM MgCl2, 13.8 mM glucose, pH 7.4).
# Calcium imaging was performed immediately after loading cells with Fura-2, using a ZEISS Axiovert 200M microscope platform equipped with a flipping filter wheel for ratiometric imaging. Axiovision software, version 4.6 was used for calcium image analysis of the cells excited at 340 nm and 380 nm. Agonists were added at 15 seconds after the start of the excitation procedure. Antagonists were added five minutes before imaging with the agonists. Images were taken every 5 seconds, including at zero time, during a 90 second period or longer if required. The software later analyzed all images taken during each excitation period. Ratiometric changes were measured in 10-20 cells in each individual experiment. An average of the fluorescence of the cells in each image was calculated and plotted against time in seconds.
# Each of the concentration dependent readings was performed in triplicate. Maximum intensities at each of the dilutions were calculated and plotted against concentration using GraphPad Prism software. Error bars represent SEM.
# Mrgprs = experiment: Calcium imaging of transfected HeLa cells, statements on Mrgprs not named singly; assay type: cell-based; conditions: for inhibition of activation of Mrgprs by SP: FIG. 6a: cells pretreated with inhibitor 10 minutes
# Method: as §1, with “They” for “10 μg of expression vector (human MRGPRX2, mouse MrgprA1 or NK1) and 10 μl of LIPOFECTAMINE 2000 transfection reagent were diluted into 0.5 ml of DMEM and separately left at room temperature (RT) for 5 min. They”, “7.4). Calcium imaging was performed immediately after loading cells with Fura-2, using a ZEISS Axiovert 200M microscope platform equipped with a flipping filter wheel for ratiometric imaging. Axiovision software, version 4.6 was used for calcium image analysis of the cells excited at 340 nm and 380 nm. Agonists were added at 15 seconds after the start of the excitation procedure. […] The software later analyzed all images taken during each excitation period. Ratiometric changes were measured in 10-20 cells in each individual experiment. An average of the fluorescence of the cells in each image was calculated and plotted against time in seconds.” for “7.4).”
# [2] = C57BL/6 mice, co-injected intradermally into the cheek, 10 μL, 500 μM of each substance
compound,measurement,setting,value
FC(F)(F)c1cc(CO[C@H]2CCCN[C@H]2c2ccccc2)cc(C(F)(F)F)c1 [L-733060],effect on SP-provoked itch (scratching bouts),[1]; 500 μM of each substance,only minimally effective; also recorded: not effective
same,effect on SP-provoked itch (scratching bouts),"[1]; 500 μM of each substance, listed as L733060",does not significantly decrease and not and lack of significant blockade and does not
same,inhibition of SP-induced activation of human MRGPRX2,MrgX2 (human MRGPRX2),did not impact
same,inhibition of activation of Mrgprs by SP,Mrgprs,did not impact
same,inhibition of activation of Mrgprs by SP,Mrgprs; listed as L733060,do not inhibit
C[C@@H](O[C@H]1OCCN(Cc2n[nH]c(=O)[nH]2)[C@H]1c1ccc(F)cc1)c1cc(C(F)(F)F)cc(C(F)(F)F)c1 [aprepitant],inhibition of SP-induced activation of human MRGPRX2,MrgX2 (human MRGPRX2),did not impact
same,inhibition of activation of Mrgprs by SP,Mrgprs,did not impact; also recorded: do not inhibit
Boc-Gln-D-Trp(Formyl)-Phe benzyl ester trifluoroacetate [QWF],effect on SP-provoked itch (scratching bouts),[1]; 500 μM of each substance,significantly decreased; also recorded: decreased SP-induced itch to baseline; also recorded: decreased SP-provoked itch to baseline; also recorded: reduced to baseline
same,effect on SLIGRL-provoked itch (scratching bouts),[1]; [2],blocks; also recorded: reduced to baseline; also recorded: significantly decreased
same,effect on compound 48/80-provoked itch (scratching bouts),[1]; [2],blocks compound 48/80-induced itch to baseline; also recorded: blocks compound 48/80-provoked itch to baseline; also recorded: reduced to baseline; also recorded: significantly decreased
same,inhibition of hMRGPRX2 activation by compound 48/80,MrgX2 (human MRGPRX2),inhibits
same,inhibition of SP-induced activation of human MRGPRX2,MrgX2 (human MRGPRX2),excellent inhibitor; also recorded: potent antagonist; also recorded: inhibits
same,inhibition of human MRGPRX2 activation by atracurium and ciprofloxacin,MrgX2 (human MRGPRX2); FIG. 8a,antagonized; also recorded: inhibits
same,inhibition of activation of Mrgprs by SP,Mrgprs,blocks
same,inhibition of activation of Mrgprs by compound 48/80,"Mrgprs; FIG. 7b: compound 48/80 1 μM, QWF 1 μM",antagonizes; also recorded: inhibits
SLIGRL: tethered hexapeptide ligand of mouse PAR2 (SEQ ID NO: 7),"provocation of itch (scratching bouts) by the injected substance, WT mice",[1],provoke itch
same,activation of human MRGPRX2 by the substance (in words),"MrgX2 (human MRGPRX2); NPFF 50 μM, capsaicin 3 μM, SP at nanomolar concentrations",activates
"SP: inflammatory undecapeptide neuropeptide of the tachykinin family, synthesized by GenScript",SP-provoked itch in NK1 knockout mice,"[1]; cheek, intradermal, FIG. 5a: 10 μL SP 1 mM, compared to WT",induced itch; also recorded: provoked itch; also recorded: not decreased
same,SP-provoked itch in Mrgpr cluster knockout mice,"[1]; cheek, intradermal, FIG. 5a: 10 μL SP 1 mM, compared to WT, listed as Substance P",does not provoke itch
same,"provocation of itch (scratching bouts) by the injected substance, WT mice",[1],induced itch; also recorded: provoked itch
same,"provocation of itch (scratching bouts) by the injected substance, WT mice",[1]; listed as Substance P,provokes itch
